From ChEMBL document CHEMBL4765458, “Synthesis and biological evaluation of organoselenium (NSAIDs-SeCN and SeCF) derivatives as potential anticancer agents” (Eur J Med Chem, 2020)
Active and inactive are the calls of the source. The rule behind the calls is not given here.

Key:
[1] = Antioxidant activity assessed as GPx-like activity by measuring oxidation of NADPH to NADP+ by NADPH-reductase coupled assay; assay type: functional
SW480 [2] = assay: Cytotoxicity against human SW480 cells assessed as reduction in cell viability measured after 24 hrs by MTT assay; assay type: functional, cell-based; details: SW480, 24 h
SW480 [3] = assay: Cytotoxicity against human SW480 cells assessed as reduction in cell viability measured after 48 hrs by MTT assay; assay type: functional, cell-based; details: SW480, 48 h
SW480 [4] = assay: Cytotoxicity against human SW480 cells assessed as reduction in cell viability measured after 72 hrs by MTT assay; assay type: functional, cell-based; details: SW480, 72 h
HeLa [5] = assay: Cytotoxicity against human HeLa cells assessed as reduction in cell viability measured after 24 hrs by MTT assay; assay type: functional, cell-based
HeLa [6] = assay: Cytotoxicity against human HeLa cells assessed as reduction in cell viability measured after 48 hrs by MTT assay; assay type: functional, cell-based
HeLa [7] = assay: Cytotoxicity against human HeLa cells assessed as reduction in cell viability measured after 72 hrs by MTT assay; assay type: functional, cell-based
A549 [8] = assay: Cytotoxicity against human A549 cells assessed as reduction in cell viability measured after 24 hrs by MTT assay; assay type: functional, cell-based; details: A549, 24 h
A549 [9] = assay: Cytotoxicity against human A549 cells assessed as reduction in cell viability measured after 72 hrs by MTT assay; assay type: functional, cell-based; details: A549, 72 h
MCF7 [10] = assay: Cytotoxicity against human MCF7 cells assessed as reduction in cell viability measured after 24 hrs by MTT assay; assay type: functional, cell-based; details: MCF7, 24 h
MCF7 [11] = assay: Cytotoxicity against human MCF7 cells assessed as reduction in cell viability measured after 48 hrs by MTT assay; assay type: functional, cell-based; details: MCF7, 48 h
MCF7 [12] = assay: Cytotoxicity against human MCF7 cells assessed as reduction in cell viability measured after 72 hrs by MTT assay; assay type: functional, cell-based; details: MCF7, 72 h
MCF7 [13] = assay: Induction of apoptosis in human MCF7 cells assessed as down regulation of Bcl-2 expression at IC50 measured after 48 hrs by ELISA relative to control; assay type: functional
MCF7 [14] = assay: Induction of apoptosis in human MCF7 cells assessed as up regulation of IL-2 expression at IC50 measured after 48 hrs by ELISA relative to control; assay type: functional
MCF7 [15] = assay: Induction of apoptosis in human MCF7 cells assessed as up regulation of caspase-3 expression at IC50 measured after 48 hrs by ELISA relative to control; assay type: functional
[16] = Antioxidant activity assessed as DPPH radical scavenging activity incubated for 30 mins under dark condition relative to control; assay type: functional; parameters: concentration or dose not given beside the values
A549 [17] = assay: cells; details: Homo sapiens, A549, 48 h

| Structure (SMILES) | Activity [1] | IC50 (SW480 [2]) [µM] | IC50 (SW480 [3]) [µM] | IC50 (SW480 [4]) [µM] | IC50 (HeLa [5]) [µM] | IC50 (HeLa [6]) [µM] | IC50 (HeLa [7]) [µM] | IC50 (A549 [8]) [µM] | IC50 (A549 [9]) [µM] | IC50 (MCF7 [10]) [µM] | IC50 (MCF7 [11]) [µM] | IC50 (MCF7 [12]) [µM] | Activity (MCF7 [13]) | Activity (MCF7 [14]) | fold change (FC) (MCF7 [15]) | inhibition [16] [%] | IC50 (A549 [17]) [µM] | Activity (MCF7 [15]) |
| --- | --- | --- | --- | --- | --- | --- | --- | --- | --- | --- | --- | --- | --- | --- | --- | --- | --- | --- |
| CC(=O)Oc1ccccc1C(=O)NCCC[Se]C(F)(F)F | Active | 8.2 | 7.2 | 7.8 | 28.7 | 26.3 | 15.4 | 16.4 | 17.3 | 3.5 | 4.2 | 4.4 | >50% | Active | 5 | 72.5 | 18.6 | – |
| COc1ccc2c(c1)c(CC(=O)O)c(C)n2C(=O)c1ccc(Cl)cc1 [INDOMETHACIN] | – | > 50 | > 50 | > 50 | > 50 | > 50 | > 50 | > 50 | > 50 | > 50 | > 50 | > 50 | – | – | – | – | > 50 | – |
| COc1ccc2c(c1)c(CC(=O)NCCC[Se]C(F)(F)F)c(C)n2C(=O)c1ccc(Cl)cc1 | – | 14.6 | 16.4 | 13.1 | 30.1 | 21.4 | 15.6 | 18.3 | 30.3 | 17.3 | 26 | 35 | – | – | – | 25.8 | 26.5 | – |
| N#C[Se]CCCNC(=O)c1ccccc1Nc1cccc(C(F)(F)F)c1 | – | 25.2 | 17.4 | 24.7 | 38.2 | 33.4 | > 50 | 26.1 | 36.4 | 14.2 | 16.4 | 13.3 | – | – | – | – | 28.3 | – |
| COc1ccc2c(c1)c(CC(=O)NCCC[Se]C#N)c(C)n2C(=O)c1ccc(Cl)cc1 | – | 16.3 | 18.2 | 14.2 | 32.1 | 24.4 | 19.6 | 28.5 | > 50 | 28.3 | > 50 | > 50 | – | – | – | 49.6 | 31.2 | – |
| COc1ccc2cc([C@H](C)C(=O)NCCC[Se]C#N)ccc2c1 | – | 12 | 21.7 | 30.4 | 21.5 | 24.5 | 35.7 | 32.2 | > 50 | 28.3 | 27.1 | > 50 | – | – | – | 22.6 | > 50 | – |
| CC1=C(CC(=O)NCCC[Se]C(F)(F)F)c2cc(F)ccc2/C1=C\c1ccc([S+](C)[O-])cc1 (stereo not drawn) | – | 13.4 | 11.4 | 10.1 | 24.3 | 15.1 | 19.4 | 9.4 | 7.4 | 8.2 | 6.4 | 10.4 | – | – | – | 32.8 | 11.3 | – |
| CC1=C(CC(=O)NCCC[Se]C#N)c2cc(F)ccc2/C1=C\c1ccc([S+](C)[O-])cc1 (stereo not drawn) | – | 15.4 | 12.4 | 12.1 | 28.4 | 16.2 | 21.5 | 11.4 | 9.4 | 13.2 | 8.4 | 11.3 | – | – | – | 21.2 | 15.3 | – |
| Cc1cccc(Nc2ccccc2C(=O)NCCC[Se]C#N)c1C | – | 14.4 | 9.7 | 13.2 | 26.5 | 34.3 | > 50 | 37.3 | > 50 | 18.5 | 11.2 | 7.9 | – | – | – | 26.5 | > 50 | – |
| CC(=O)Oc1ccccc1C(=O)NCCC[Se]C#N | Active | 9.3 | 7.4 | 8.2 | 31.4 | 28.4 | 18.3 | 18.4 | 22.3 | 6.8 | 8.6 | 10.3 | Active | Active | – | 52.1 | 22.6 | Active |
| O=C(NCCC[Se]C(F)(F)F)c1ccccc1Nc1cccc(C(F)(F)F)c1 | – | 22.2 | 15.7 | 19.7 | 33.2 | 30.3 | > 50 | 18.1 | 26.4 | 7.2 | 8.4 | 9.3 | – | – | – | – | 21.3 | – |
| CC1=C(CC(=O)O)c2cc(F)ccc2/C1=C\c1ccc([S+](C)[O-])cc1 (stereo not drawn) | – | > 50 | > 50 | > 50 | > 50 | > 50 | > 50 | > 50 | > 50 | > 50 | > 50 | > 50 | – | – | – | – | > 50 | – |
| CC(C(=O)NCCC[Se]C#N)c1ccc(-c2ccccc2)c(F)c1 (stereo not drawn) | – | 23.2 | 30.5 | 21.7 | 36.2 | 32.4 | 15.9 | 23.5 | > 50 | 22.4 | 32.1 | > 50 | – | – | – | 16.3 | 32.2 | – |
| Cc1cccc(Nc2ccccc2C(=O)NCCC[Se]C(F)(F)F)c1C | – | 12.4 | 8.4 | 10.3 | 24.5 | 28.3 | > 50 | 27.3 | > 50 | 8.5 | 9.2 | 6.9 | – | – | – | 38.9 | 36.8 | – |
| CCc1cccc2c3c([nH]c12)C(CC)(CC(=O)NCCC[Se]C#N)OCC3 (stereo not drawn) | – | 19.5 | 18.9 | 20.6 | 26.8 | 17.4 | 28.5 | 28.4 | 36.6 | 35.2 | 37.4 | > 50 | – | – | – | 24.5 | 21.7 | – |
| COc1ccc2cc([C@H](C)C(=O)NCCC[Se]C(F)(F)F)ccc2c1 | – | 10 | 15.7 | 25.4 | 16.5 | 22.5 | 30.7 | 28.4 | > 50 | 19.3 | 22.1 | 35.5 | – | – | – | 37.2 | 33.5 | – |
| CC(C(=O)NCCC[Se]C(F)(F)F)c1ccc(-c2ccccc2)c(F)c1 (stereo not drawn) | Active | 18.3 | 24.4 | 19.5 | 30.2 | 28.4 | 14.9 | 14.5 | 35.4 | 12.1 | 17.1 | 18.5 | – | – | – | 40.5 | 23.2 | – |
| O=c1[nH]cc(F)c(=O)[nH]1 [FLUOROURACIL] | – | 15.3 | 12.4 | – | 20.6 | 15.5 | 12.7 | 25.3 | 17.3 | 8.5 | 10.4 | 12.6 | – | – | – | – | – | – |
| CCc1cccc2c3c([nH]c12)C(CC)(CC(=O)NCCC[Se]C(F)(F)F)OCC3 (stereo not drawn) | – | 17.5 | 14.5 | 19.6 | 22.8 | 14.4 | 25.5 | 19.4 | 26.6 | 26.2 | 28.4 | 33.5 | – | – | – | 26.8 | 17.7 | – |
| CC(C(=O)O)c1cccc(C(=O)c2ccccc2)c1 (stereo not drawn) [KETOPROFEN] | – | > 50 | > 50 | > 50 | > 50 | > 50 | > 50 | > 50 | > 50 | > 50 | > 50 | > 50 | – | – | – | – | > 50 | – |
| C[C@H](C(=O)NCCC[Se]C(F)(F)F)c1cccc(C(=O)c2ccccc2)c1 | Active | 8.2 | 7.4 | 6.5 | 19.6 | 17.5 | 28.7 | 13.1 | 22.6 | 8.6 | 9.3 | 9.5 | – | – | – | 48.4 | 18.4 | – |
| C[C@H](C(=O)NCCC[Se]C#N)c1cccc(C(=O)c2ccccc2)c1 | – | 10.2 | 8.4 | 7.7 | 25.6 | 18.5 | 34.7 | 24.1 | 32.6 | 9.6 | 11.3 | 12.5 | – | – | – | 30.4 | 28.4 | – |
